The assay in a line: Sensory evaluation by a trained panel, single sip protocol. Type of assay: in vivo. To be noted: mean panel score, 400 ppm in water at 4° C.; for Bitter Aftertaste Intensity / Sweet Linger Intensity: 1 minute after tasting; for Overall Max Bitterness / Overall Max Sweetness: from sip up to 1 minute; for Bitter Intensity In Mouth: maximum bitterness in mouth during 5 seconds; for Sweet Intensity In Mouth: maximum sweetness in mouth during 5 seconds. The method, then: The sensory profiles of CC-00326, CC-00342 and CC-00345 were compared to rebaudioside M.
A trained panel evaluated the various samples. Samples were evaluated using a single sip protocol as follows: • Samples were served at approximately 4° C. • Panelists were instructed to take 1 sip of the sample, hold in mouth for 5 seconds, expectorate, and rate the given attributes • A 5 minute break was placed between each sample and panelists were instructed to cleanse their palates with at least 1 bite of unsalted cracker and 2 sips of filtered water • Due to limited sample quantity panelists were given 7 mL aliquots of each sample • Samples were randomized within each session for each panelist • All samples were presented in replicate in each session
Samples were evaluated for the following: • Sweet taste intensity: maximum level of sweetness in mouth during 5 seconds • Bitter taste intensity: maximum level of bitterness in mouth during 5 seconds • Overall maximum sweet intensity: maximum sweet intensity experienced from the time the sip is taken up to 1 minute • Overall maximum bitter intensity: […] experienced from the time the sip is taken up to 1 minute • Sweet linger intensity: sweet intensity 1 minute after tasting the sample • Bitter aftertaste intensity: bitter intensity 1 minute after tasting the sample
Data was analyzed with an ANOVA, with Sample as fixed effects and Panelist and interaction as random effects was used to determine significance between the samples for each attribute at the 95% Confidence Level, two-tailed. Fishers LSD was used to determine significant differences between mean scores.
The sensory profile of (i) 400 ppm CC-00326 was compared to (ii) 400 ppm Reb M 80% (rebaudioside M content 80% by weight on a dry basis). Both samples (i) and (ii) were formulated in a water matrix at 4° C.
The sensory profile of (i) 400 ppm CC-00342 was compared to (ii) 400 ppm Reb M 95% (rebaudioside M content 95% by weight on a dry basis). Both samples (i) and (ii) were formulated in a water matrix at 4° C.
The sensory profile of (i) 400 ppm CC-00345 was compared to (ii) 400 ppm Reb M 95% (rebaudioside M content 95% by weight on a dry basis). Both samples (i) and (ii) were formulated in a water matrix at 4° C.

[1] abbreviates: Table 1 (CC-00326 vs Reb M 80%).
The mark [2] stands for this setting: Table 2 (CC-00342 vs Reb M 95%).
Setting [3] is: Table 3 (CC-00345 vs Reb M 95%).
[4] abbreviates: Table 3 (CC-00345 vs Reb M 95%), p = 0.08 at the 90% CL.

For the compound `C=C1C[C@@]23CC[C@H]4[C@@](C)(CCC[C@@]4(C)C(=O)O[C@@H]4O[C@H](CO)[C@@H](O)[C@H](O[C@@H]5O[C@H](CO)[C@@H](O)[C@H](O)[C@H]5O)[C@H]4O[C@@H]4O[C@H](CO)[C@@H](O)[C@H](O)[C@H]4O)[C@@H]2CC[C@]1(O[C@@H]1O[C@H](CO)[C@@H](O)[C@H](O[C@@H]2O[C@H](CO)[C@@H](O)[C@H](O)[C@H]2O)[C@H]1O[C@@H]1O[C@H](CO)[C@@H](O)[C@H](O)[C@H]1O)C3` [Reb M 80%, rebaudioside M], under setting [1], the “Bitter Aftertaste Intensity” value was 1.1 A, the “Sweet Linger Intensity” value is given as 4.3 A, the “Overall Max Bitterness” value is 2.3 A and the “Overall Max Sweetness” value is 9.0 A. Further, under setting [1], the “Bitter Intensity In Mouth” value was 1.6 A and the “Sweet Intensity In Mouth” value is 8.3 A.
Consider `C=C1C[C@@]23CCC4[C@](C)(C(=O)OC5OC(COC6OC(CO)C(O)C(O)C6O)C(O)C(O)C5O)CCC[C@@]4(C)[C@@H]2CCC1(OC1OC(CO)C(O)C(OC2OC(CO)C(O)C(O)C2O)C1OC1OC(CO)C(O)C(O)C1O)C3` (stereo partly drawn) [CC-00326, 13-[(2-O-β-D-glucopyranosyl-3-O-β-D-glucopyranosyl-β-D-glucopyranosyl)oxy] ent-kaur-16-en-19-oic acid-[(6-O-α-D-glucopyranosyl-β-D-glucopyranosyl) ester]], for which, under setting [1], the “Bitter Aftertaste Intensity” value is on record as 0.9 A, the “Sweet Linger Intensity” value turned out to be 3.9 A, the “Overall Max Bitterness” value is 1.6 B and the “Overall Max Sweetness” value was 7.9 A. Also, under setting [1], the “Bitter Intensity In Mouth” value was found to be 0.8 B and the “Sweet Intensity In Mouth” value turned out to be 6.9 B.
Consider `C=C1C[C@@]23CCC4[C@](C)(C(=O)OC5OC(COC6OC(CO)C(O)C(O)C6O)C(O)C(O)C5OC5OC(CO)C(O)C(O)C5O)CCC[C@@]4(C)[C@@H]2CCC1(OC1OC(CO)C(O)C(OC2OC(CO)C(O)C(O)C2O)C1OC1OC(CO)C(O)C(O)C1O)C3` (stereo partly drawn) [CC-00342], for which, under setting [2], the “Bitter Aftertaste Intensity” value is on record as 1.0, the “Sweet Linger Intensity” value was determined as 3.8 A, the “Overall Max Bitterness” value came to 2.0 and the “Overall Max Sweetness” value worked out at 8.1 A. Besides, under setting [2], the “Bitter Intensity In Mouth” value stood at 1.2 and the “Sweet Intensity In Mouth” value was determined as 6.7 A.
As to `C=C1C[C@@]23CC[C@H]4[C@@](C)(CCC[C@@]4(C)C(=O)O[C@@H]4O[C@H](CO)[C@@H](O)[C@H](O[C@@H]5O[C@H](CO)[C@@H](O)[C@H](O)[C@H]5O)[C@H]4O[C@@H]4O[C@H](CO)[C@@H](O)[C@H](O)[C@H]4O)[C@@H]2CC[C@]1(O[C@@H]1O[C@H](CO)[C@@H](O)[C@H](O[C@@H]2O[C@H](CO)[C@@H](O)[C@H](O)[C@H]2O)[C@H]1O[C@@H]1O[C@H](CO)[C@@H](O)[C@H](O)[C@H]1O)C3` [Reb M 95%, rebaudioside M], under setting [2], the “Bitter Aftertaste Intensity” value is reported as 1.0, the “Sweet Linger Intensity” value is 4.5 A, the “Overall Max Bitterness” value is on record as 2.0 and the “Overall Max Sweetness” value came to 8.5 A. Also, under setting [2], the “Bitter Intensity In Mouth” value is reported as 1.1 and the “Sweet Intensity In Mouth” value came out at 7.0 A. In addition, under setting [3], the “Bitter Aftertaste Intensity” value turned out to be 1.3 A, the “Sweet Linger Intensity” value is reported as 3.6 A, the “Overall Max Sweetness” value is 7.4 A and the “Bitter Intensity In Mouth” value is on record as 1.3 A. Besides, the “Sweet Intensity In Mouth” value under setting [3] is 7.1 A. The “Overall Max Bitterness” value under setting [4] is listed as 1.5 A.
Consider `C=C1C[C@@]23CCC4[C@](C)(C(=O)OC5OC(COC6OC(CO)C(O)C(O)C6O)C(O)C(OC6OC(CO)C(O)C(O)C6O)C5OC5OC(CO)C(O)C(O)C5O)CCC[C@@]4(C)[C@@H]2CCC1(OC1OC(CO)C(O)C(OC2OC(CO)C(O)C(O)C2O)C1OC1OC(CO)C(O)C(O)C1O)C3` (stereo partly drawn) [CC-00345], for which, under setting [3], the “Bitter Aftertaste Intensity” value turned out to be 1.8 A, the “Sweet Linger Intensity” value was 3.9 A, the “Overall Max Sweetness” value was found to be 7.2 A and the “Bitter Intensity In Mouth” value was 1.3 A. Moreover, the “Sweet Intensity In Mouth” value under setting [3] amounted to 6.6 A. Further, under setting [4], the “Overall Max Bitterness” value was 2.2 A.

Values taken from patent publication US11851695B2, “Preparing novel steviol glycosides by bioconversion” (The Coca-Cola Company, priority 2016, dated 2023).
